{
  "source": "paper PMC10388327",
  "about": "“Dual Piperidine-Based Histamine H3 and Sigma-1 Receptor Ligands in the Treatment of Nociceptive and Neuropathic Pain” (Journal of Medicinal Chemistry, 2023)",
  "key": {"[1]": {"assay": "parallel artificial membrane permeability assay (PAMPA)", "format": "in vitro ADME", "conditions": "100 μM in PBS pH 7.4, RT, read-out: Pe (permeability coefficient)"}, "mice [2]": {"tested_on": "mice", "assay": "oxaliplatin-induced neuropathy, von Frey test", "format": "in vivo", "conditions": "for pain threshold after single administration, early phase: 3 h after OXPT; for pain threshold after single administration, late phase: 7 days after OXPT", "experimental": "The neuropathy manifests as a decrease in the pain threshold and can be observed in hours or in days after oxaliplatin administration, which is called the early or late phase of neuropathic pain, respectively. We tested the influence of compound 12 on tactile allodynia using the von Frey method 3 h and 7 days after the induction of neuropathy.[12]\nNeuropathy was induced by the administration of a single dose (10 mg/kg) of oxaliplatin (OXPT) dissolved in a 5% glucose solution (Polfa Kutno, Poland). To assess the sensitivity to mechanical stimuli, the von Frey test was carried out using the electronic von Frey unit (Bioseb, France). The apparatus was supplied with a single flexible filament, which was used to apply increasing force (from 0 to 10 g) against the plantar surface of the hind paw of the mouse. […] The measurement was done before the OXPT administration and 3 h and 7 days afterward. The compounds were administrated to the animals with tactile allodynia observed as a statistically significant decrease in pain threshold. On the day of the experiment, each mouse was placed in an observation chamber with a wire mesh bottom and was allowed to habituate for 1 h. After the habituation period, the mouse pain threshold was tested three times alternately with at least 30 s gap between each measurement. The mean of these three consecutive measurements was taken as the baseline value. The mice with tactile allodynia were i.p. pretreated with the tested compound, and 30 min later, the animals were tested again according to the same procedure.[92]"}, "[3]": {"molecular_target": "T1, human histamine H4 receptor (hH4R) (Homo sapiens, UniProt Q9H3N8)", "T1 construct": "SP (signal peptide) (N); FLAG (N); expressed in transfected cells", "T1 sequence (Q9H3N8 whole entry)": "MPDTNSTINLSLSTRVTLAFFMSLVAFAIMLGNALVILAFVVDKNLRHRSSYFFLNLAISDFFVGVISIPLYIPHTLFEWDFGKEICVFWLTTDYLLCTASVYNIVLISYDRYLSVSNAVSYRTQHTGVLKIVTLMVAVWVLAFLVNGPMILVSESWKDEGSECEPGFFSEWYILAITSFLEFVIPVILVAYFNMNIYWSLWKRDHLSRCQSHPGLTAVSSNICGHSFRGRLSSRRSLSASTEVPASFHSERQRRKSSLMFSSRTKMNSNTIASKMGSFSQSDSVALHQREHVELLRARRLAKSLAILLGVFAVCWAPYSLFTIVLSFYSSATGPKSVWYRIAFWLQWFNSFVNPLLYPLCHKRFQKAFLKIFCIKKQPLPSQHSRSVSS", "assay": "hH4R radioligand binding ([3H]UR-PI294)", "conditions": "read-out: hH4R (Ki [nM] x̅ [CI 95%]); HEK293T cells; n = 3, triplicate", "experimental": "(§1) To check the selectivity profile of our lead structures, radioligand binding studies at other histamine receptor subtypes were carried out. […] Obtained results clearly indicate the high selectivity of the tested derivatives toward human H3R (Table 3).\n(§2) Compounds (as oxalate salts) were tested in H3R in vitro binding studies using the methods described previously.[21]−[23] […] Radioligand binding experiments at the H1R, H2R, and H4R were performed as previously described in Rosier et al.[65] and Bartole et al.[66] […] Data represent mean values ± CI from three independent experiments, each performed in triplicate. The normalized competition binding curves were then fitted with a four-parameter logistic fit yielding IC50 values using the Prism 8.4.3 software (GraphPad, San Diego, CA). The Ki values were estimated from the Cheng–Prusoff equation.[69]"}, "mice [4]": {"tested_on": "mice", "assay": "capsaicin-induced nociception", "format": "in vivo", "experimental": "The procedure used was similar to that described previously.[88],[89] The pain reaction was induced by the injection of 20 μL of capsaicin solution (1.6 μg/paw made in PBS) under the skin of the dorsal surface of the mice right hindpaw. The animals were observed individually in an observation chamber for 5 min following capsaicin injection. The amount of time spent licking the injected paw was recorded by means of the stopwatch and was considered as indicative of pain. The animals were pretreated with the vehicle (10 mL/kg, negative control) and investigated compound (10, 15, and 30 mg/kg)."}, "[5]": {"molecular_target": "T2, human histamine H1 receptor (hH1R) (Homo sapiens, UniProt P35367)", "T2 construct": "SP (signal peptide) (N); FLAG (N); expressed in transfected cells", "T2 sequence (P35367 whole entry)": "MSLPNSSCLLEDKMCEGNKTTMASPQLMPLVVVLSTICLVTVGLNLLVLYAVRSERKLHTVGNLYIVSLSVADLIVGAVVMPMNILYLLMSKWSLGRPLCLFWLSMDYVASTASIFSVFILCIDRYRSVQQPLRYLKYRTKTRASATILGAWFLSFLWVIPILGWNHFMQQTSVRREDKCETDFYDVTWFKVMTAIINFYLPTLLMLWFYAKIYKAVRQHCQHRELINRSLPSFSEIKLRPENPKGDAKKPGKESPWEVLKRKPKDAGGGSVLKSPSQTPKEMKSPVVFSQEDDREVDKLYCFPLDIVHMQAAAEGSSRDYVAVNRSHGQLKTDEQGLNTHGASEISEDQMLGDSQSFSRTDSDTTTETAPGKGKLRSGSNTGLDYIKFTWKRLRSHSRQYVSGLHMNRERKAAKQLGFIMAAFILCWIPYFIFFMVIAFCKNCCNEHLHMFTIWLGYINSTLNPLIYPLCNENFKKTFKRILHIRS", "assay": "hH1R radioligand binding ([3H]mepyramine)", "conditions": "read-out: hH1R (Ki [nM] x̅ [CI 95%]); HEK293T cells; n = 3, triplicate", "experimental": "as §1, §2"}, "[6]": {"molecular_target": "T3, human recombinant histamine H3R (Homo sapiens, UniProt Q9Y5N1)", "T3 construct": "expressed in transfected cells", "T3 sequence (Q9Y5N1 whole entry)": "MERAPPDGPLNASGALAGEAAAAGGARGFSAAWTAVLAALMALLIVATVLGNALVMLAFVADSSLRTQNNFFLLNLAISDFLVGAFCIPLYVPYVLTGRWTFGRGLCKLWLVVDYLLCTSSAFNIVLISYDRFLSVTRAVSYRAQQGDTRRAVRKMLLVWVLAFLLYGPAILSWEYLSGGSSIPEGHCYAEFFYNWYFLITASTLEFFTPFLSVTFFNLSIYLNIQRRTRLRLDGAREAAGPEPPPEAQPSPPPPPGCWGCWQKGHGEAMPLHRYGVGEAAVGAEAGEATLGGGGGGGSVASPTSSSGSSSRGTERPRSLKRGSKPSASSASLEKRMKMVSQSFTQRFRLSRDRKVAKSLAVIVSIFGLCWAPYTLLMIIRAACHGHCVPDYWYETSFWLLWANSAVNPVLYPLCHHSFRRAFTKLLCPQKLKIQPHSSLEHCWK", "assay": "hH3R radioligand binding ([3H]Nα-methylhistamine depletion assay)", "conditions": "read-out: hH3R Ki [nM] x̄ [CI 95%]; mean [CI 95%]; HEK-293 cells"}, "mice [7]": {"tested_on": "mice", "assay": "motor coordination in the rotarod test", "format": "in vivo", "conditions": "15 mg/kg i.p.; 6, 18 and 24 rpm", "from_the_text": "The neurotoxicity of the new compounds can result in impaired motor functions of the experimental animals, which may subsequently cause false interpretation of the results of in vivo tests. Understandably, neurotoxicity is also the frequent reason for eliminating the tested compound from further studies. To minimize that risk, we investigated the influence of our lead structures on motor coordination in the rotarod test, which is the classical test used for assessing motor coordination and balance in rodents. It provides a quick and simple estimation of neuromuscular coordination. […] The time spent on the rotarod apparatus was 60 s for each control mouse.\nThe test was carried out on the semiautomatic rotarod apparatus (Rotarod apparatus Panlab/Harvard Apparatus, LE 8200, Spain) according to the method previously described in the literature.[85] The mice were trained for 3 days on the rod rotating at a constant speed of 18 rotations per minute (rpm). During each training session, the animals were placed on the rod for 3 min with an unlimited number of trials. On the test day (24 h after the final training trial), 30 min before the rotarod test, the mice were pretreated (i.p.) with the test compound (15 mg/kg). Then, the animals were tested on the rotarod revolving at 6, 18, and then 24 rpm. Motor impairments, defined as the inability to remain on the rotating rod for 1 min, were measured at each speed."}, "[8]": {"molecular_target": "T4, human histamine H2 receptor (hH2R) (Homo sapiens, UniProt P25021)", "T4 construct": "SP (signal peptide) (N); FLAG (N); expressed in transfected cells", "T4 sequence (P25021 whole entry)": "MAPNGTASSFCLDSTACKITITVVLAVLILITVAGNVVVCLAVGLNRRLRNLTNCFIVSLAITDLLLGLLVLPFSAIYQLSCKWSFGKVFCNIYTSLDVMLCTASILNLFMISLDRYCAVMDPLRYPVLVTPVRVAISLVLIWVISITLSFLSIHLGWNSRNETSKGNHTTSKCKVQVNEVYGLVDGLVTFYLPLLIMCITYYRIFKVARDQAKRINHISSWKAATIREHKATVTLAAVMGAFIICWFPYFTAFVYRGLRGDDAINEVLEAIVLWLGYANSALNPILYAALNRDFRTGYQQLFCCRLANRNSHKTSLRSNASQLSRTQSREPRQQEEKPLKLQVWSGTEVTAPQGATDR", "assay": "hH2R radioligand binding ([3H]UR-DE257)", "conditions": "HEK293T cells; n = 3, triplicate", "experimental": "as §1, §2"}},
  "note": "Where a name gives a salt, the structure may show the parent alone.",
  "data": [
    {"compound": "N#Cc1ccc(-c2ccc(OCCCN3CCC(c4ccncc4)CC3)cc2)cc1", "note": "[Compound 12, 4′-(3-(4-(Pyridin-4-yl)piperidin-1-yl)propoxy)-[1,1′-biphenyl]-4-carbonitrile Oxalate]", "values": [
      {"measurement": "Papp at 5 h, 100 µM", "setting": "[1]", "value": 12, "unit": "×10⁻⁶ cm/s"},
      {"measurement": "pain threshold after single administration, early phase", "setting": "mice [2]; 5 mg/kg i.p.", "value": "88.6 % of the baseline"},
      {"measurement": "pain threshold after single administration, early phase", "setting": "mice [2]; 10 mg/kg i.p.", "value": "115.0 % of the baseline"},
      {"measurement": "pain threshold after single administration, late phase", "setting": "mice [2]; 10 mg/kg i.p.", "value": "99.8 % of the baseline"},
      {"measurement": "pain threshold after single administration, early phase", "setting": "mice [2]; 15 mg/kg i.p.", "value": "124.3 % of the baseline"},
      {"measurement": "pain threshold after single administration, late phase", "setting": "mice [2]; 15 mg/kg i.p.", "value": "123.7 % of the baseline"},
      {"measurement": "Ki", "setting": "[3]", "value": "> 10000", "unit": "nM"},
      {"measurement": "effect on nociceptive response in capsaicin test", "setting": "mice [4]; 10, 15 and 30 mg/kg", "value": "significantly decreased the paw licking or biting behavior"},
      {"measurement": "ED50", "setting": "mice [4]; Mus musculus, 5 min, 5 min after intraplantar capsaicin, read-out: ED50, capsaicin test", "value": 10.3, "unit": "mg/kg"},
      {"measurement": "Ki", "setting": "[5]", "value": 653, "unit": "nM"},
      {"measurement": "Ki", "setting": "[6]", "value": 7.7, "unit": "nM"},
      {"measurement": "influence on motor coordination, time on rotarod", "setting": "mice [7]", "value": "slightly affected motor coordination, but the effect was not statistically significant"},
      {"measurement": "Ki", "setting": "[8]", "value": "> 10000", "unit": "nM"}
    ]}
  ]
}
